# Tests used:
# [1] = molecular target: T1, WRN [UniPro: Q14191 (WRN_HUMAN), N500-C946] (Homo sapiens (Human), UniProt Q14191); assay: WRN ATPase assay (ADP-Glo); type: biochemical; conditions: WRN enzymatic activity assay
# [2] = molecular target: T1, WRN [UniPro: Q14191 (WRN_HUMAN), N500-C946]; assay: WRN unwinding assay (FORKF DNA, fluorescence); type: biochemical; conditions: Table 14
# T1 sequence (Q14191 500-946): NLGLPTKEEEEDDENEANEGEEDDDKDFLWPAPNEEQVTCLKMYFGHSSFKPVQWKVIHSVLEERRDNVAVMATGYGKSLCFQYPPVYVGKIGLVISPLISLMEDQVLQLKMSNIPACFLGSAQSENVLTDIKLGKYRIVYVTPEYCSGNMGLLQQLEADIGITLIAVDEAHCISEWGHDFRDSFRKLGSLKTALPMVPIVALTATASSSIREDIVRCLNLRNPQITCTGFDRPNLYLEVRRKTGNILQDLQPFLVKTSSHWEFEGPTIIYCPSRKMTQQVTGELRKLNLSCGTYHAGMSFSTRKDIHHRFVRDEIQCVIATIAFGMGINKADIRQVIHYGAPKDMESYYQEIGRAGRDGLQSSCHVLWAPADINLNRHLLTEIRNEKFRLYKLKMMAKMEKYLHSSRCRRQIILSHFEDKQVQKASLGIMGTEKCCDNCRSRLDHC
IC50 [1] [nM],IC50 [2] [nM],Structure (SMILES)
100 to 1000,100 to 1000,"CCc1c(N2CCN(C(=O)CNC(=O)c3ncco3)CC2)c(=O)n2nc(N3CCCOCC3)nc2n1CC(=O)Nc1ccc(C(F)(F)F)cc1F [Example 257, N-(2-(4-(5-Ethyl-4-(2-((2-fluoro-4-(trifluoromethyl)phenyl)amino)-2-oxoethyl)-2-(1,4-oxazepan-4-yl)-7-oxo-4,7-dihydro-[1,2,4]triazolo[1,5-a]pyrimidin-6-yl)piperazin-1-yl)-2-oxoethyl)oxazole-2-carboxamide]"
100 to 1000,< 100,"CCc1c(N2CCN(C(=O)CNc3ncnc4cccnc34)CC2)c(=O)n2nc(C3=CCOCC3)nc2n1CC(=O)Nc1ccc(C(F)(F)F)cc1Cl [Example 362, N-(2-Chloro-4-(trifluoromethyl)phenyl)-2-(2-(3,6-dihydro-2H-pyran-4-yl)-5-ethyl-7-oxo-6-(4-(pyrido[3,2-d]pyrimidin-4-ylglycyl)piperazin-1-yl)-[1,2,4]triazolo[1,5-a]pyrimidin-4(7H)-yl)acetamide]"
< 100,< 100,"CCc1c(N2CCN(C(=O)CNC(=O)c3ccnn3C)CC2)c(=O)n2nc(C3=CCOCC3)nc2n1CC(=O)Nc1ccc(C(F)(F)F)cc1Cl [Example 114, N-(2-(4-(4-(2-((2-Chloro-4-(trifluoromethyl)phenyl)amino)-2-oxoethyl)-2-(3,6-dihydro-2H-pyran-4-yl)-5-ethyl-7-oxo-4,7-dihydro-[1,2,4]triazolo[1,5-a]pyrimidin-6-yl)piperazin-1-yl)-2-oxoethyl)-1-methyl-1H-pyrazole-5-carboxamide]"
100 to 1000,100 to 1000,"CCc1c(N2CCN(C(=O)C(=O)NC3CC3)CC2)c(=O)n2nc(C3=CCOCC3)nc2n1CC(=O)Nc1ccc(C(F)(F)F)cc1Cl [Example 359, 2-(4-(4-(2-((2-Chloro-4-(trifluoromethyl)phenyl)amino)-2-oxoethyl)-2-(3,6-dihydro-2H-pyran-4-yl)-5-ethyl-7-oxo-4,7-dihydro-[1,2,4]triazolo[1,5-a]pyrimidin-6-yl)piperazin-1-yl)-N-cyclopropyl-2-oxoacetamide]"
< 100,< 100,"CCc1c(N2CCN(C(=O)CNC(=O)c3ccon3)CC2)c(=O)n2nc(C3=CCOCC3)nc2n1CC(=O)Nc1ccc(C(F)(F)F)cc1F [Example 221, N-(2-(4-(2-(3,6-Dihydro-2H-pyran-4-yl)-5-ethyl-4-(2-((2-fluoro-4-(trifluoromethyl)phenyl)amino)-2-oxoethyl)-7-oxo-4,7-dihydro-[1,2,4]triazolo[1,5-a]pyrimidin-6-yl)piperazin-1-yl)-2-oxoethyl)isoxazole-3-carboxamide]"

# The next lines start with the compound.
Structure (SMILES),IC50 [1] [nM],IC50 [2] [nM]
"CCc1c(N2CCN(C(=O)CNC(=O)c3cccc(Cl)c3Cl)CC2)c(=O)n2nc(C3=CCOCC3)nc2n1CC(=O)Nc1ccc(C(F)(F)F)cc1Cl [Example 104, 2,3-Dichloro-N-(2-(4-(4-(2-((2-chloro-4-(trifluoromethyl)phenyl)amino)-2-oxoethyl)-2-(3,6-dihydro-2H-pyran-4-yl)-5-ethyl-7-oxo-4,7-dihydro-[1,2,4]triazolo[1,5-a]pyrimidin-6-yl)piperazin-1-yl)-2-oxoethyl)benzamide]",100 to 1000,< 100
"CCc1c(N2CCN(C(=O)CNC(=O)C3CC3)CC2)c(=O)n2nc(C3=CCOCC3)nc2n1CC(=O)Nc1ccc(C(F)(F)F)cc1Cl [Example 165, N-(2-(4-(4-(2-((2-Chloro-4-(trifluoromethyl)phenyl)amino)-2-oxoethyl)-2-(3,6-dihydro-2H-pyran-4-yl)-5-ethyl-7-oxo-4,7-dihydro-[1,2,4]triazolo[1,5-a]pyrimidin-6-yl)piperazin-1-yl)-2-oxoethyl)cyclopropanecarboxamide]",< 100,< 100
"CCc1c(N2CCN(C(=O)CNC(=O)c3ccccc3F)CC2)c(=O)n2nc(N3Cc4cnn(C)c4C3)nc2n1CC(=O)Nc1cc(C)cs1 [Example 263, N-(2-(4-(5-Ethyl-2-(1-methyl-4,6-dihydropyrrolo[3,4-c]pyrazol-5 (1H)-yl)-4-(2-((4-methylthiophen-2-yl)amino)-2-oxoethyl)-7-oxo-4,7-dihydro-[1,2,4]triazolo[1,5-a]pyrimidin-6-yl)piperazin-1-yl)-2-oxoethyl)-2-fluorobenzamide]",< 100,< 100
"CCc1c(N2CCN(C(=O)CNC(=O)c3ccc(F)c(F)c3)CC2)c(=O)n2nc(C3=CCOCC3)nc2n1CC(=O)Nc1ccc(C(F)(F)F)cc1Cl [Example 132, N-(2-(4-(4-(2-((2-Chloro-4-(trifluoromethyl)phenyl)amino)-2-oxoethyl)-2-(3,6-dihydro-2H-pyran-4-yl)-5-ethyl-7-oxo-4,7-dihydro-[1,2,4]triazolo[1,5-a]pyrimidin-6-yl)piperazin-1-yl)-2-oxoethyl)-3,4-difluorobenzamide]",< 100,< 100
"CCc1c(N2CCN(C(=O)C(=O)Nc3nccs3)CC2)c(=O)n2nc(N3CCOCC3)nc2n1CC(=O)Nc1ccc(C(F)(F)F)cc1Cl [Example 258, 2-(4-(4-(2-((2-Chloro-4-(trifluoromethyl)phenyl)amino)-2-oxoethyl)-5-ethyl-2-morpholino-7-oxo-4,7-dihydro-[1,2,4]triazolo[1,5-a]pyrimidin-6-yl)piperazin-1-yl)-2-oxo-N-(thiazol-2-yl)acetamide]",< 100,< 100
"CCc1c(N2CCN(C(=O)CNC(=O)c3ncncc3O)CC2)c(=O)n2nc(C3=CCOCC3)nc2n1CC(=O)Nc1ccc(C(F)(F)F)cc1Cl [Example 364, N-(2-(4-(4-(2-((2-Chloro-4-(trifluoromethyl)phenyl)amino)-2-oxoethyl)-2-(3,6-dihydro-2H-pyran-4-yl)-5-ethyl-7-oxo-4,7-dihydro-[1,2,4]triazolo[1,5-a]pyrimidin-6-yl)piperazin-1-yl)-2-oxoethyl)-5-hydroxypyrimidine-4-carboxamide]",< 100,< 100
"CCc1c(N2CCN(C(=O)CNC(=O)Cc3ccccc3F)CC2)c(=O)n2nc(C3=CCOCC3)nc2n1CC(=O)Nc1ccc(C(F)(F)F)cc1Cl [Example 274, N-(2-Chloro-4-(trifluoromethyl)phenyl)-2-(2-(3,6-dihydro-2H-pyran-4-yl)-5-ethyl-6-(4-((2-(2-fluorophenyl)acetyl)glycyl)piperazin-1-yl)-7-oxo-[1,2,4]triazolo[1,5-a]pyrimidin-4(7H)-yl)acetamide]",< 100,< 100
"CCc1c(N2CCN(C(=O)CNC(=O)c3cc(NC)ccc3F)CC2)c(=O)n2nc(C3=CCOCC3)nc2n1CC(=O)Nc1ccc(C(F)(F)F)cc1F [Example 215, N-(2-(4-(2-(3,6-dihydro-2H-pyran-4-yl)-5-ethyl-4-(2-((2-fluoro-4-(trifluoromethyl)phenyl)amino)-2-oxoethyl)-7-oxo-4,7-dihydro-[1,2,4]triazolo[1,5-a]pyrimidin-6-yl)piperazin-1-yl)-2-oxoethyl)-2-fluoro-5-(methylamino)benzamide]",< 100,< 100
"CCc1c(N2CCN(C(=O)c3ncnc4cn[nH]c34)CC2)c(=O)n2nc(C3=CCOCC3)nc2n1CC(=O)Nc1ccc(C(F)(F)F)cc1Cl [Example 17, 2-(6-(4-(1H-Pyrazolo[4,3-d]pyrimidine-7-carbonyl)piperazin-1-yl)-2-(3,6-dihydro-2H-pyran-4-yl)-5-ethyl-7-oxo-[1,2,4]triazolo[1,5-a]pyrimidin-4(7H)-yl)-N-(2-chloro-4-(trifluoromethyl)phenyl)acetamide]",< 100,< 100
